{"source": "patent US20240109918A1", "about": "“HETEROCYCLIC COMPOUNDS AND USES THEREOF” (Kumquat Biosciences Inc., priority 2022, published 2024)", "key": {"[1]": {"molecular_target": "T1, KRASG12D (Homo sapiens, UniProt P01116, G12D)", "T1 construct": "made in house; host or cells: E. coli BL21 (DE3)", "T1 sequence (P01116 1-188 isoform P01116-2 G12D)": "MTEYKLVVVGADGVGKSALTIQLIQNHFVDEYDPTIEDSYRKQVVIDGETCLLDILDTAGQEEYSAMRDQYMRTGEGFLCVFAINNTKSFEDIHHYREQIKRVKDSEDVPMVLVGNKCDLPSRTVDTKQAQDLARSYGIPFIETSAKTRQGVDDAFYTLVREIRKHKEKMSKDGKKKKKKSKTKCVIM", "assay": "Bio-Biochem-PPI-HTRF Ras-SOS1 interaction assay (KRAS G12D)", "type": "biochemical", "details": "5 nM", "how_it_was_run": "(§1)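 HTRF measurement of GST-K-Ras (wt or G12D) binding to His-hSOS1, via anti-GST-Eu(K) donor and anti-6His-XL665 acceptor, in HEPES pH 7.4 buffer with NaCl, DTT, BSA and Igepal. Read after ≥10 min; compounds in duplicate from 10 μM down to 0.01 μM. IC50 from 665/620 nm ratio.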"}, "[2]": {"molecular_target": "T2, KRASwt (Homo sapiens, UniProt P01116)", "T2 construct": "made in house; host or cells: E. coli BL21 (DE3)", "T2 sequence (P01116 1-188 isoform P01116-2)": "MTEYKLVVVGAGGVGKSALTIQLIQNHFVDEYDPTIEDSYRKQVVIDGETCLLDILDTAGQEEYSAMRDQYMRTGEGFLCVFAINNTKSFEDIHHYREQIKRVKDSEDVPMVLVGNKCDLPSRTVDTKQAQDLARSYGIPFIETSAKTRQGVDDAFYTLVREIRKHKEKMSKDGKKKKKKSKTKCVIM", "assay": "Bio-Biochem-PPI-HTRF Ras-SOS1 interaction assay (KRAS wt)", "type": "biochemical", "details": "5 nM", "how_it_was_run": "as §1"}}, "data": [{"compound": "N#Cc1c(N)sc2c(F)ccc(-c3c(Cl)cc4c(N5CCCCC6(CN(C(=O)CC7(C#N)CC7)C6)C5)nc(OC[C@@]56CCCN5C[C@H](F)C6)nc4c3F)c12", "note": "[compound 280, 2-amino-4-(6-chloro-4-(2-(2-(1-cyanocyclopropyl)acetyl)-2,6-diazaspiro[3.6]decan-6-yl)-8-fluoro-2-(((2R,7aS)-2-fluorotetrahydro-1H-pyrrolizin-7a(5H)-yl)methoxy)quinazolin-7-yl)-7-fluorobenzo[b]thiophene-3-carbonitrile]", "values": [{"measurement": "IC50", "setting": "[1]", "value": "< 5", "unit": "µM"}, {"measurement": "IC50", "setting": "[2]", "value": "< 5", "unit": "µM"}]}, {"compound": "N#Cc1c(N)sc2c(F)ccc(-c3c(Cl)cc4c(N5CCCCC6(CN(C(=O)N7CC(F)(F)C7)C6)C5)nc(OC[C@@]56CCCN5C[C@H](F)C6)nc4c3F)c12", "note": "[compound 298, 2-amino-4-(6-chloro-4-(2-(3,3-difluoroazetidine-1-carbonyl)-2,6-diazaspiro[3.6]decan-6-yl)-8-fluoro-2-(((2R,7aS)-2-fluorotetrahydro-1H-pyrrolizin-7a(5H)-yl)methoxy)quinazolin-7-yl)-7-fluorobenzo[b]thiophene-3-carbonitrile]", "values": [{"measurement": "IC50", "setting": "[1]", "value": "< 5", "unit": "µM"}, {"measurement": "IC50", "setting": "[2]", "value": "< 5", "unit": "µM"}]}, {"compound": "C[C@H](Oc1nc(N2CCOC3(CNC3)C2)c2cc(Cl)c(-c3ccc(F)c4sc(N)c(C#N)c34)c(F)c2n1)[C@@H]1CCCN1C", "note": "(single isomer, unassigned; atropisomer 1) [compound 128]", "values": [{"measurement": "IC50", "setting": "[1]", "value": "≥ 5", "unit": "µM"}, {"measurement": "IC50", "setting": "[2]", "value": "< 5", "unit": "µM"}]}, {"compound": "N#Cc1c(N)sc2c(F)ccc(-c3c(Cl)cc4c(N5CCCCC6(CN(C(=O)C7CCC7C#N)C6)C5)nc(OC[C@@]56CCCN5C[C@H](F)C6)nc4c3F)c12", "note": "(stereo partly drawn) [compound 345, 2-amino-4-(6-chloro-4-(2-(2-cyanocyclobutane-1-carbonyl)-2,6-diazaspiro[3.6]decan-6-yl)-8-fluoro-2-(((2R,7aS)-2-fluorotetrahydro-1H-pyrrolizin-7a(5H)-yl)methoxy)quinazolin-7-yl)-7-fluorobenzo[b]thiophene-3-carbonitrile]", "values": [{"measurement": "IC50", "setting": "[1]", "value": "< 5", "unit": "µM"}, {"measurement": "IC50", "setting": "[2]", "value": "< 5", "unit": "µM"}]}, {"compound": "CC(C)NC(=O)N1CC2(CC(Nc3nc(OCC45CCCN4C[C@H](F)C5)nc4c(F)c(-c5ccc(F)c6sc(N)c(C#N)c56)c(Cl)cc34)C2)C1", "note": "(stereo partly drawn) [compound 151, 6-((7-(2-amino-3-cyano-7-fluorobenzo[b]thiophen-4-yl)-6-chloro-8-fluoro-2-(((2R)-2-fluorotetrahydro-1H-pyrrolizin-7a(5H)-yl)methoxy)quinazolin-4-yl)amino)-N-isopropyl-2-azaspiro[3.3]heptane-2-carboxamide]", "values": [{"measurement": "IC50", "setting": "[1]", "value": "< 5", "unit": "µM"}, {"measurement": "IC50", "setting": "[2]", "value": "< 5", "unit": "µM"}]}, {"compound": "N#Cc1c(N)sc2c(F)ccc(-c3c(Cl)cc4c(N5CCCCC6(CN(C(=O)CN7CCOCC7)C6)C5)nc(OC[C@@]56CCCN5C[C@H](F)C6)nc4c3F)c12", "note": "[compound 335, 2-amino-4-(6-chloro-8-fluoro-2-(((2R,7aS)-2-fluorotetrahydro-1H-pyrrolizin-7a(5H)-yl)methoxy)-4-(2-(2-morpholinoacetyl)-2,6-diazaspiro[3.6]decan-6-yl)quinazolin-7-yl)-7-fluorobenzo[b]thiophene-3-carbonitrile]", "values": [{"measurement": "IC50", "setting": "[1]", "value": "< 5", "unit": "µM"}, {"measurement": "IC50", "setting": "[2]", "value": "< 5", "unit": "µM"}]}, {"compound": "CCN(C(=O)N1CC2(C1)CN(c1nc(OC[C@@]34CCCN3C[C@H](F)C4)nc3c(F)c(-c4ccc(F)c5sc(N)c(C#N)c45)c(Cl)cc13)CC(F)(F)O2)C(C)C", "note": "[compound 153, 8-(7-(2-amino-3-cyano-7-fluorobenzo[b]thiophen-4-yl)-6-chloro-8-fluoro-2-(((2R,7aS)-2-fluorotetrahydro-1H-pyrrolizin-7a(5H)-yl)methoxy)quinazolin-4-yl)-N-ethyl-6,6-difluoro-N-isopropyl-5-oxa-2,8-diazaspiro[3.5]nonane-2-carboxamide]", "values": [{"measurement": "IC50", "setting": "[1]", "value": "< 5", "unit": "µM"}, {"measurement": "IC50", "setting": "[2]", "value": "< 5", "unit": "µM"}]}]}
